One molecule from patent US9839618B2, “Compositions and methods relating to proliferative diseases” (The Penn State Research Foundation, priority 2010, dated 2017) can be followed below.

Series [1] concerns UACC 903 and 1205 Lu cells. Kind of series: Caspase-3/7 apoptosis assay. Format: cell-based, human. Particulars: 0.62 to 10 μmol/L, 24 hours. The protocol: (§1) The mechanistic basis of leelamine's activity to inhibit melanoma cell growth is determined by examining the effect of leelamine on 1) cell viability using the MTS assay; 2) proliferation using a BrdU incorporation assay; 3) apoptosis using an assay for caspase-3/7 activity; and 4) cell cycle analysis. The MTS assay as described in Sharma, A. et al., Clin Cancer Res, 2009, 15:1674-85; and Madhunapantula, S. V. et al., Mol Cancer Ther, 2008, 7:1297-308 is used to assay cell viability. Rates of proliferation and apoptosis are measured by seeding 5×10^3 cells in 96-well plates, followed by treatment with 0.62 to 10 μmol/L of leelamine for 24 hours. Proliferating and apoptotic cells are quantified using a colorimetric cell proliferation ELISA BrdU kit (Roche diagnostics, Indianapolis, Ind.) or Apo-ONE Homogenous caspase-3/7 assay kit (Promega, Madison, Wis.), respectively, as described in Sharma, A. et al., Clin Cancer Res, 2009, 15:1674-85; and Madhunapantula, S. V. et al., Mol Cancer Ther, 2008, 7:1297-308.

The subject of series [2] is non-melanoma cancer cell lines. Kind of series: MTS assay, leelamine on non-melanoma cancer cell lines. Format: cell-based. Conditions: breast, lung, prostate, connective tissue, pancreas, colon lines. Here is the method: The efficacy of leelamine to kill other cancer types is measured and the IC50 for cell lines derived from carcinomas of breast, lung, prostate, connective tissue, pancreas and colon determined. The MTS assay as described in Sharma, A. et al., Clin Cancer Res, 2009, 15:1674-85; and Madhunapantula, S. V. et al., Mol Cancer Ther, 2008, 7:1297-308 is used to establish the IC50 at 24, 48 and 72 hours of leelamine treatment for normal human epidermal melanocytes (FOM103), normal skin fibroblast cells (FF2441), normal skin keratinocytes (HFK) and compared to melanocytic lesion cells from the radial-, vertical- and metastatic melanoma stages. 5×10^3 cells per well in 100 μL of media are plated and grown in a 96-well plate for 48 to 72 hours and treated with either DMSO vehicle control or 0.62 to 40 μmol/L of leelamine for 24, 48 or 72 hours. IC50 values for each compound in μmol/L for respective cell lines are measured from three independent experiments using GraphPad Prism version 4.01 (GraphPad Software, La Jolla, Calif.). Leelamine is found to be not toxic to normal cells and effective to kill melanoma cells as well as non-melanoma cancer cells as shown in Table 1 in FIG. 20. Leelamine is 3- to 4-fold more specific at killing metastatic melanoma than normal cells, supporting cancer therapeutic utility at concentrations<2 μmol/L.

Series [3] deals with normal cells (melanocytes FOM103, fibroblasts FF2441, keratinocytes HFK). Kind of series: MTS assay, leelamine on normal cells. The format is cell-based. Conditions: Homo sapiens, 72 hour exposure, read-out: concentration to kill 50% of normal cells. The protocol: The efficacy of leelamine to kill other cancer types is measured and the IC50 for cell lines derived from carcinomas of breast, lung, prostate, connective tissue, pancreas and colon determined. The MTS assay as described in Sharma, A. et al., Clin Cancer Res, 2009, 15:1674-85; and Madhunapantula, S. V. et al., Mol Cancer Ther, 2008, 7:1297-308 is used to establish the IC50 at 24, 48 and 72 hours of leelamine treatment for normal human epidermal melanocytes (FOM103), normal skin fibroblast cells (FF2441), normal skin keratinocytes (HFK) and compared to melanocytic lesion cells from the radial-, vertical- and metastatic melanoma stages. […] IC50 values for each compound in μmol/L for respective cell lines are measured from three independent experiments using GraphPad Prism version 4.01 (GraphPad Software, La Jolla, Calif.). […]
5×10^3 cells per well in 100 μL of media are plated and grown in a 96-well plate for 48 to 72 hours and treated with either DMSO vehicle control or 0.62 to 40 μmol/L of leelamine for 24, 48 or 72 hours. IC50 values for each compound in μmol/L for respective cell lines are measured from three independent experiments using GraphPad Prism version 4.01 (GraphPad Software, La Jolla, Calif.).
On the technique in general: Tetrazolium assays rely on reduction of a dye to a coloured formazan, in cell work by metabolically active cells.

For series [4], the system named is UACC 903 and 1205 Lu cells. Kind of series: BrdU incorporation proliferation assay. Particulars: 0.62 to 10 μmol/L, 24 hours. Format: cell-based, human. Here is the method: as §1
Series [5] in a line: Toxicity assessment of leelamine. Format: in vivo, Swiss Webster mice. Here is the method: To assess toxicity, Swiss Webster (n=5) mice are intraperitoneally injected with 5 or 10 mg/kg body weight leelamine or with vehicle control (DMSO) every day for 4 weeks. Animals are weighed daily to ascertain the toxicity leading to changes in body weight. Blood is collected by cardiac puncture at the end of treatment and analyzed for the levels of ALP (alkaline phosphatase), ALT (alanine aminotransferase), AST (aspartate aminotransferase), CK (creatine kinase), CREA (creatinine) and GLU (glucose), parameters indicative of organ related toxicity, following systemic administration of 10-mg/Kg-body weight of leelamine, shown in FIG. 11. […] Vital organs including liver, spleen, kidney, intestine, lung and heart from control and experimental animals are collected at the end of the test period, formalin fixed, paraffin-embedded, hematoxylin/eosin stained and analyzed microscopically for changes in cellular morphology or tissue architecture as described in Sharma, A. et al., Clin Cancer Res, 2009, 15:1674-85; and Madhunapantula, S. V. et al., Mol Cancer Ther, 2008, 7:1297-308.

The subject of series [6] is 1205 Lu human melanoma cell tumors. Kind of series: Melanoma xenograft tumor development, 1205 Lu. Format: in vivo, mice. Particulars: intraperitoneally 2.5-7.5 mg/kg daily for 3-4 weeks, compared to DMSO vehicle. Here is the method:
The efficacy of leelamine for inhibiting melanoma tumor development is evaluated on preexisting tumors formed following subcutaneous injection of cancer cells into nude mice. Tumor kinetics are measured by subcutaneous injection of 1.0×10^6 UACC 903 or 1205 Lu cells in 0.2 mL of DMEM supplemented with 10% FBS subcutaneously injected above both left and right rib cages of 3- to 4-wk-old female athymic nude-Foxn1^nu mice (Harlan Laboratories, Indianapolis, Ind.). Six days later, when a fully vascularized tumor (50-75 mm^3) has formed, mice are randomly divided into DMSO vehicle control and experimental groups (5 mice/group; 2 tumors/mouse) and treated intraperitoneally with 2.5-7.5 mg/kg body weight leelamine daily for 3-4 weeks. Body weight (grams) and dimensions of the developing tumors (mm^3) are measured at the time of drug treatment as described in Sharma, A. et al., Clin Cancer Res, 2009, 15:1674-85; and Madhunapantula, S. V. et al., Mol Cancer Ther, 2008, 7:1297-308.
Tumor kinetics are measured by subcutaneous injection of 1.0×10^6 UACC 903 or 1205 Lu cells in 0.2 mL of DMEM supplemented with 10% FBS subcutaneously injected above both left and right rib cages of 3- to 4-wk-old female athymic nude-Foxn1^nu mice (Harlan Laboratories, Indianapolis, Ind.). […] Body weight (grams) and dimensions of the developing tumors (mm^3) are measured at the time of drug treatment.

Where [7] appears, read: i.p. 10 mg/kg daily for 4 weeks.

`CC(C)c1ccc2c(c1)CCC1[C@](C)(CN)CCC[C@]21C` (stereo partly drawn) [Leelamine, [(1R,4aS)-1,4a-dimethyl-7-(propan-2-yl)-1,2,3,4,4a,9,10,10a-octahydrophenanthren-1-yl]methanamine]: the “apoptosis (caspase-3/7 activity)” value in series [1] is given as “increase apoptosis”. The molecule further returned an IC50 in series [2] of 1 to 10 µM. For the same molecule, the IC50 in series [3] is 5 to 8 µM. Besides, the “proliferation (BrdU incorporation)” value in series [4] is “decrease proliferation”. Also, in series [5] (setting [7]), the “blood ALP, ALT, AST, CK, CREA, GLU” value was “No significant differences” and the “histology of liver, spleen, kidney, intestine, lung, heart” value is “did not significantly alter cell morphology or overall structure”. Besides, in series [5] (i.p. 5 or 10 mg/kg every day for 4 weeks), the body weights result is listed as “no significant differences”. Moreover, the “reduction of tumor volume, 1205 Lu” value in series [6] was 57%.
